Reference: patent publication US20080200404A1, “Novel Antimalarial 9A-Carbamoyl-Aminoalkyl and 9A-Thiocarbamoyl-Aminoalkyl Azalides” (priority 2005, published 2008)
Converted amounts (≈) assume the structure as drawn. Read-outs that look alike come from different tables or passages of the source.

Tests used:
Format in all cases: cell-based
[1] = test system: Plasmodium falciparum clone CDC/Sierra Leone I (D-6); test: In vitro antimalarial [3H]-hypoxanthine incorporation serial dilution assay, D6; settings: Plasmodium falciparum, D6, 72 h, P. falciparum D6, 72 hours exposure
Summary of the method: (§1)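 Blood-stage cultures in RPMI-1640 with 6% A+ erythrocytes and human plasma or ALBUMAX, 37° C under 5% CO2/5% O2. Compounds in two-fold dilutions over 11 concentrations; [3H]-hypoxanthine incorporation after 72 h total incubation, CPM normalised to untreated parasite controls; IC50 by non-linear logistic fit.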

[2] = test system: Plasmodium falciparum clone CDC/Indochina III (W-2); test: In vitro antimalarial [3H]-hypoxanthine incorporation serial dilution assay, W2; settings: Plasmodium falciparum; P. falciparum W2, 72 hours exposure
Summary of the method: as §1

[3] = test system: Plasmodium falciparum TM91C235; test: In vitro antimalarial [3H]-hypoxanthine incorporation assay, TM91C235; settings: Plasmodium falciparum; P. falciparum TM91C235 (multiple drug resistant isolate), 72 hours exposure
Summary of the method: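 Multidrug-resistant P. falciparum TM91C235 was run at 0.4% parasitemia and 1% hematocrit in folate/PABA-free RPMI-1640 with ALBUMAX, at 37° C under 5% CO2/5% O2. Compound was tested in duplicate at 25,000, 2,500 and 25 ng/ml, preexposed 48 h, then [3H]-hypoxanthine was added (72 h total). Counts are expressed relative to untreated parasite controls.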

[4] = compared with azithromycin, read-out: IC50 D6 (class symbol)

Structure (SMILES)	IC50 ([1]; read-out: IC50 D6)	IC50 [2]	IC50 [3]	IC50 [1, 4]
CC[C@H]1OC(=O)[C@H](C)[C@@H](O[C@H]2C[C@@](C)(OC)[C@@H](O)[C@H](C)O2)[C@H](C)[C@@H](O[C@@H]2O[C@H](C)C[C@H](N(C)C)[C@H]2O)[C@](C)(O)C[C@@H](C)CN(CCCNC(=S)Nc2ccc(C)cc2)[C@H](C)[C@@H](O)[C@]1(C)O [Example 97]	0.311 µg/mL (≈ 0.33 µM)	0.0671 µg/mL (≈ 0.0713 µM)	0.154 µg/mL (≈ 0.164 µM)	–
CCCCNC(=S)NCCCN1C[C@H](C)C[C@@](C)(O)[C@H](O[C@@H]2O[C@H](C)C[C@H](N(C)C)[C@H]2O)[C@@H](C)[C@H](O[C@H]2C[C@@](C)(OC)[C@@H](O)[C@H](C)O2)[C@@H](C)C(=O)O[C@H](CC)[C@@](C)(O)[C@H](O)[C@H]1C.O=CO [Example 96]	0.625 µg/mL	0.179 µg/mL	0.364 µg/mL	–
CC[C@H]1OC(=O)[C@H](C)[C@@H](O[C@H]2C[C@@](C)(OC)[C@@H](O)[C@H](C)O2)[C@H](C)[C@@H](O[C@@H]2O[C@H](C)C[C@H](N(C)C)[C@H]2O)[C@](C)(O)C[C@@H](C)CN(CCCNC(=O)Nc2cc(C)oc2C(F)(F)F)[C@H](C)[C@@H](O)[C@]1(C)O.O=CO [Example 88]	0.371 µg/mL	0.319 µg/mL	0.33 µg/mL	–
CC[C@H]1OC(=O)[C@H](C)[C@@H](O[C@H]2C[C@@](C)(OC)[C@@H](O)[C@H](C)O2)[C@H](C)[C@@H](O[C@@H]2O[C@H](C)C[C@H](N(C)C)[C@H]2O)[C@](C)(O)C[C@@H](C)CN(CCCNC(=S)Nc2ccc(N(C)C)c3ccccc23)[C@H](C)[C@@H](O)[C@]1(C)O.O=CO [Example 142]	0.348 µg/mL	0.186 µg/mL	0.192 µg/mL	–
CC[C@H]1OC(=O)[C@H](C)[C@@H](O[C@H]2C[C@@](C)(OC)[C@@H](O)[C@H](C)O2)[C@H](C)[C@@H](O[C@@H]2O[C@H](C)C[C@H](N(C)C)[C@H]2O)[C@](C)(O)C[C@@H](C)CN(CCCNC(=O)Nc2ccc(C(C)=O)cc2)[C@H](C)[C@@H](O)[C@]1(C)O.O=CO [Example 65]	–	0.708 µg/mL	0.398 µg/mL	> 0.797 µg/mL
CC[C@H]1OC(=O)[C@H](C)[C@@H](O[C@H]2C[C@@](C)(OC)[C@@H](O)[C@H](C)O2)[C@H](C)[C@@H](O[C@@H]2O[C@H](C)C[C@H](N(C)C)[C@H]2O)[C@](C)(O)C[C@@H](C)CN(CCCNC(=S)Nc2c(F)cccc2F)[C@H](C)[C@@H](O)[C@]1(C)O [Example 104]	0.49 µg/mL (≈ 0.509 µM)	0.0831 µg/mL (≈ 0.0863 µM)	0.181 µg/mL (≈ 0.188 µM)	–
CC[C@H]1OC(=O)[C@H](C)[C@@H](O[C@H]2C[C@@](C)(OC)[C@@H](O)[C@H](C)O2)[C@H](C)[C@@H](O[C@@H]2O[C@H](C)C[C@H](N(C)C)[C@H]2O)[C@](C)(O)C[C@@H](C)CN(CCCNC(=S)Nc2ccc(Cl)cc2)[C@H](C)[C@@H](O)[C@]1(C)O [Example 103]	0.18 µg/mL (≈ 0.188 µM)	0.0514 µg/mL (≈ 0.0534 µM)	0.103 µg/mL (≈ 0.108 µM)	–
CC[C@H]1OC(=O)[C@H](C)[C@@H](O[C@H]2C[C@@](C)(OC)[C@@H](O)[C@H](C)O2)[C@H](C)[C@@H](O[C@@H]2O[C@H](C)C[C@H](N(C)C)[C@H]2O)[C@](C)(O)C[C@@H](C)CN(CCCNC(=S)N[C@H]2CCCC[C@@H]2OCc2ccccc2)[C@H](C)[C@@H](O)[C@]1(C)O.O=CO [Example 123]	0.7 µg/mL	0.297 µg/mL	0.137 µg/mL	–
CC[C@H]1OC(=O)[C@H](C)[C@@H](O[C@H]2C[C@@](C)(OC)[C@@H](O)[C@H](C)O2)[C@H](C)[C@@H](O[C@@H]2O[C@H](C)C[C@H](N(C)C)[C@H]2O)[C@](C)(O)C[C@@H](C)CN(CCCNC(=O)Nc2cccc(Cl)c2)[C@H](C)[C@@H](O)[C@]1(C)O.O=CO [Example 80]	0.451 µg/mL	0.186 µg/mL	0.117 µg/mL	–
CC[C@H]1OC(=O)[C@H](C)[C@@H](O[C@H]2C[C@@](C)(OC)[C@@H](O)[C@H](C)O2)[C@H](C)[C@@H](O[C@@H]2O[C@H](C)C[C@H](N(C)C)[C@H]2O)[C@](C)(O)C[C@@H](C)CN(CCCNC(=O)NC2CCN(C(=O)OCc3ccccc3)CC2)[C@H](C)[C@@H](O)[C@]1(C)O.O=CO [Example 91]	0.698 µg/mL	0.303 µg/mL	0.259 µg/mL	–
CC[C@H]1OC(=O)[C@H](C)[C@@H](O[C@H]2C[C@@](C)(OC)[C@@H](O)[C@H](C)O2)[C@H](C)[C@@H](O[C@@H]2O[C@H](C)C[C@H](N(C)C)[C@H]2O)[C@](C)(O)C[C@@H](C)CN(CCCNC(=S)Nc2ccc(Cl)c(Cl)c2)[C@H](C)[C@@H](O)[C@]1(C)O [Example 132]	0.295 µg/mL (≈ 0.296 µM)	0.229 µg/mL (≈ 0.229 µM)	0.0839 µg/mL (≈ 0.0842 µM)	–
CC[C@H]1OC(=O)[C@H](C)[C@@H](O[C@H]2C[C@@](C)(OC)[C@@H](O)[C@H](C)O2)[C@H](C)[C@@H](O[C@@H]2O[C@H](C)C[C@H](N(C)C)[C@H]2O)[C@](C)(O)C[C@@H](C)CN(CCCNC(=S)Nc2cccc3nsnc23)[C@H](C)[C@@H](O)[C@]1(C)O.O=CO [Example 150]	0.181 µg/mL	0.091 µg/mL	0.105 µg/mL	–
CC[C@H]1OC(=O)[C@H](C)[C@@H](O[C@H]2C[C@@](C)(OC)[C@@H](O)[C@H](C)O2)[C@H](C)[C@@H](O[C@@H]2O[C@H](C)C[C@H](N(C)C)[C@H]2O)[C@](C)(O)C[C@@H](C)CN(CCCNC(=S)Nc2cc(F)ccc2C)[C@H](C)[C@@H](O)[C@]1(C)O [Example 62]	0.373 µg/mL (≈ 0.389 µM)	0.0502 µg/mL (≈ 0.0523 µM)	0.11 µg/mL (≈ 0.115 µM)	–
CC[C@H]1OC(=O)[C@H](C)[C@@H](O[C@H]2C[C@@](C)(OC)[C@@H](O)[C@H](C)O2)[C@H](C)[C@@H](O[C@@H]2O[C@H](C)C[C@H](N(C)C)[C@H]2O)[C@](C)(O)C[C@@H](C)CN(CCCN(CCC(N)=O)C(=S)NCCc2ccccc2)[C@H](C)[C@@H](O)[C@]1(C)O [Example 166, 9-Deoxo-9-dihydro-9a-{N′-(β-amidoethyl)-N′-[β-(phenylethyl)thiocarbamoyl]-γ-aminopropyl}-9a-aza-9a-homoerythromycin A]	0.458 µg/mL (≈ 0.446 µM)	0.23 µg/mL (≈ 0.224 µM)	0.161 µg/mL (≈ 0.157 µM)	–
CC[C@H]1OC(=O)[C@H](C)[C@@H](O[C@H]2C[C@@](C)(OC)[C@@H](O)[C@H](C)O2)[C@H](C)[C@@H](O[C@@H]2O[C@H](C)C[C@H](N(C)C)[C@H]2O)[C@](C)(O)C[C@@H](C)CN(CCCNC(=O)Nc2c(C)noc2-c2ccccc2)[C@H](C)[C@@H](O)[C@]1(C)O.O=CO [Example 90]	0.972 µg/mL	0.762 µg/mL	0.511 µg/mL	–
CCOC(=O)c1ccc(NC(=S)NCCCN2C[C@H](C)C[C@@](C)(O)[C@H](O[C@@H]3O[C@H](C)C[C@H](N(C)C)[C@H]3O)[C@@H](C)[C@H](O[C@H]3C[C@@](C)(OC)[C@@H](O)[C@H](C)O3)[C@@H](C)C(=O)O[C@H](CC)[C@@](C)(O)[C@H](O)[C@H]2C)cc1 [Example 112]	0.121 µg/mL (≈ 0.121 µM)	0.0709 µg/mL (≈ 0.0709 µM)	0.107 µg/mL (≈ 0.107 µM)	–
CC[C@H]1OC(=O)[C@H](C)[C@@H](O[C@H]2C[C@@](C)(OC)[C@@H](O)[C@H](C)O2)[C@H](C)[C@@H](O[C@@H]2O[C@H](C)C[C@H](N(C)C)[C@H]2O)[C@](C)(O)C[C@@H](C)CN(CCCNC(=O)NCc2ccco2)[C@H](C)[C@@H](O)[C@]1(C)O [Example 57]	–	0.263 µg/mL (≈ 0.287 µM)	0.454 µg/mL (≈ 0.496 µM)	> 0.797 µg/mL
CC[C@H]1OC(=O)[C@H](C)[C@@H](O[C@H]2C[C@@](C)(OC)[C@@H](O)[C@H](C)O2)[C@H](C)[C@@H](O[C@@H]2O[C@H](C)C[C@H](N(C)C)[C@H]2O)[C@](C)(O)C[C@@H](C)CN(CCCNC(=O)Nc2cc(F)cc3c2OCOC3)[C@H](C)[C@@H](O)[C@]1(C)O.O=CO [Example 82]	0.293 µg/mL	0.316 µg/mL	0.227 µg/mL	–
CC[C@H]1OC(=O)[C@H](C)[C@@H](O[C@H]2C[C@@](C)(OC)[C@@H](O)[C@H](C)O2)[C@H](C)[C@@H](O[C@@H]2O[C@H](C)C[C@H](N(C)C)[C@H]2O)[C@](C)(O)C[C@@H](C)CN(CCCNC(=S)Nc2ccc([N+](=O)[O-])cc2)[C@H](C)[C@@H](O)[C@]1(C)O [Example 105]	0.0184 µg/mL (≈ 0.0189 µM)	0.0201 µg/mL (≈ 0.0207 µM)	0.0237 µg/mL (≈ 0.0244 µM)	–
CC[C@H]1OC(=O)[C@H](C)[C@@H](O[C@H]2C[C@@](C)(OC)[C@@H](O)[C@H](C)O2)[C@H](C)[C@@H](O[C@@H]2O[C@H](C)C[C@H](N(C)C)[C@H]2O)[C@](C)(O)C[C@@H](C)CN(CCCNC(=O)NC2CCCCC2)[C@H](C)[C@@H](O)[C@]1(C)O [Example 58]	–	0.169 µg/mL (≈ 0.185 µM)	0.377 µg/mL (≈ 0.411 µM)	> 0.797 µg/mL
CC[C@H]1OC(=O)[C@H](C)[C@@H](O[C@H]2C[C@@](C)(OC)[C@@H](O)[C@H](C)O2)[C@H](C)[C@@H](O[C@@H]2O[C@H](C)C[C@H](N(C)C)[C@H]2O)[C@](C)(O)C[C@@H](C)CN(CCCNC(=S)Nc2ccc(Br)cc2)[C@H](C)[C@@H](O)[C@]1(C)O.O=CO [Example 137]	0.274 µg/mL	0.178 µg/mL	0.182 µg/mL	–
